According to patent publication US20070276025A1, “Indirubin-Type Compounds, Compositions, and Methods for Their Use” (priority 2003, published 2007):
Where two headings read alike, the source gives them in different places.

Key:
AhR [1] = molecular target: T1, AhR (Homo sapiens, UniProt P35869)
AhR [2] = molecular target: T2, AhR (Mus musculus, UniProt P30561); settings: read-out: EC50 AhR (hepatoma cell line); Table 4; EGFP at 24 hours
T2 sequence (P30561 1-848): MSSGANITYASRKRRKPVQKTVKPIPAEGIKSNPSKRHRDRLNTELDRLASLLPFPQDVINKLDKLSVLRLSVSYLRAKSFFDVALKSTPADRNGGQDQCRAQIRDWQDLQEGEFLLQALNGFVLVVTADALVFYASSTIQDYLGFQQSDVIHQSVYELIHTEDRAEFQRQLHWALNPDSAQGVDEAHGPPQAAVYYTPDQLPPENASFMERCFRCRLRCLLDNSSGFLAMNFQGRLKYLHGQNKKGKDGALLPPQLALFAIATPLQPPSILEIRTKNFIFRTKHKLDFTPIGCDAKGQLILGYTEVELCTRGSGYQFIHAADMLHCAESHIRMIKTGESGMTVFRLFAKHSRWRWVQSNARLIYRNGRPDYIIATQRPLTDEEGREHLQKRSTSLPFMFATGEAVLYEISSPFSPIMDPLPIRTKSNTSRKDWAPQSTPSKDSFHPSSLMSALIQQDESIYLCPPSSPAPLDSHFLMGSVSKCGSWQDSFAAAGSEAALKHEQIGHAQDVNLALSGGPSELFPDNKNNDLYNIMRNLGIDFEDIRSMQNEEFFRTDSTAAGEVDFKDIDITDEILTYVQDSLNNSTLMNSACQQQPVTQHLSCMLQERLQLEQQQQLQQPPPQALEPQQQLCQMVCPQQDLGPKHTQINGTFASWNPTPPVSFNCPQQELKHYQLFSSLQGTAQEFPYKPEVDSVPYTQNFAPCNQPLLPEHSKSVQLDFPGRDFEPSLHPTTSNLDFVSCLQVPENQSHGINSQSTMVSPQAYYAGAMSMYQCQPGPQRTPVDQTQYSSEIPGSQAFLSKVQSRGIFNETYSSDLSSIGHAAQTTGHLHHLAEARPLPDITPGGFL

GSK-3α/β = GSK-3α/β kinase assay (GS-1 peptide, 15 μM ATP); assay type: biochemical, porcine
CDK1/cyclin B = CDK1/cyclin B kinase assay (histone H1, 15 μM ATP); assay type: biochemical, starfish (Marthasterias glacialis)
CDK5/p25 = CDK5/p25 (Homo sapiens, UniProt Q00535); test: CDK5/p25 kinase assay (histone H1, 15 μM ATP); assay type: biochemical, mammalian
AhR [3] = molecular target: T1, AhR; test: Yeast AhR reporter assay (β-galactosidase); settings: read-out: EC50 AhR (yeast); Table 4; * = inactive at the indicated highest concentration tested
[4] = Table 5, read-out: IC50 GSK-3α/β
[5] = Table 7, GSK-3, read-out: IC50exp
[6] = Table 5, read-out: IC50 CDK1/cyclin B
[7] = Table 5, read-out: IC50 CDK5/p25
[8] = Table 1, read-out: IC50 GSK-3 α/β
[9] = Table 1, read-out: IC50 CDK1/cyclin B
[10] = Table 4, read-out: IC50 CDK1/cycin B
[11] = Table 1, read-out: IC50 CDK5/p25
[12] = Table 6, read-out: GSK-3 (IC50 μM)
[13] = Table 6, read-out: CDK-5 (IC50 μM)

Sequence of CDK5/p25 (Q00535 whole entry, species assumed): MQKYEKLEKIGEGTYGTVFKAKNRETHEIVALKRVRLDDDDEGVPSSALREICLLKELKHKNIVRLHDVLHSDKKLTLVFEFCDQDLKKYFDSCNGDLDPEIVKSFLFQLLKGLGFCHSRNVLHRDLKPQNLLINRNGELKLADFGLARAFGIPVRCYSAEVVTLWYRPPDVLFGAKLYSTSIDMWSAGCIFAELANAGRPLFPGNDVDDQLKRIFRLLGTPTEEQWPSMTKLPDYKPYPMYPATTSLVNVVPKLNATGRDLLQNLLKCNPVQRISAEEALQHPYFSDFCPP
Sequence of CDK5/p25 (Q15078 99-307 partner limits assumed, species assumed): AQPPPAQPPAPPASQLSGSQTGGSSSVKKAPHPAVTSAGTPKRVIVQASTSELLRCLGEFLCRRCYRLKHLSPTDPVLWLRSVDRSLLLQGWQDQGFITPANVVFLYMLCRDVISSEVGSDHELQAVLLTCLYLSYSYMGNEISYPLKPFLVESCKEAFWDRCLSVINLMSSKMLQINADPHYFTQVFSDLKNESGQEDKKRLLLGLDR
T1 sequence (P35869 11-848): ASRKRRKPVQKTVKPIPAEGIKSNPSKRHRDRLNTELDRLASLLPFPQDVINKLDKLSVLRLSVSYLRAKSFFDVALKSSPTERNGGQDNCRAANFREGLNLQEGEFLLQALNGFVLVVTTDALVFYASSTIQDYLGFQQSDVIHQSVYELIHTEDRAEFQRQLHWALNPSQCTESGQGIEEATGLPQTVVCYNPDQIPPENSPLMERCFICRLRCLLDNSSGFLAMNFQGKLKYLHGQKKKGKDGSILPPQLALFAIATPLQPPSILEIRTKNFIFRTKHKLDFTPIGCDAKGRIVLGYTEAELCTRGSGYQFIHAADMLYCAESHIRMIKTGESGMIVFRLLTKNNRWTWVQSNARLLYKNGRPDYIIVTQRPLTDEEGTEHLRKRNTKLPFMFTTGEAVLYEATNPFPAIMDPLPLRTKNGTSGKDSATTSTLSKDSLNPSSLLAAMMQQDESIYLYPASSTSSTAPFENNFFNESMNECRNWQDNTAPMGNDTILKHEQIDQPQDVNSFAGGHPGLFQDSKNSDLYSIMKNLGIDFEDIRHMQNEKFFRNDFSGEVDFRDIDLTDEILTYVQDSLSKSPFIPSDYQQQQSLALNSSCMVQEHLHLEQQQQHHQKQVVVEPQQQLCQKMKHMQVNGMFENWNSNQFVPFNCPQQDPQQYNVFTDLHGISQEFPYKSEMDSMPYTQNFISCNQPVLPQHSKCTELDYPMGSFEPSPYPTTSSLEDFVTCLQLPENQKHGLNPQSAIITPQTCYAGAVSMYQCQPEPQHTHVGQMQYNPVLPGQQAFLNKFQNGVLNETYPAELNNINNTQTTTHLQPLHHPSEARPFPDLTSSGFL
T1 sequence (P27540 whole entry partner): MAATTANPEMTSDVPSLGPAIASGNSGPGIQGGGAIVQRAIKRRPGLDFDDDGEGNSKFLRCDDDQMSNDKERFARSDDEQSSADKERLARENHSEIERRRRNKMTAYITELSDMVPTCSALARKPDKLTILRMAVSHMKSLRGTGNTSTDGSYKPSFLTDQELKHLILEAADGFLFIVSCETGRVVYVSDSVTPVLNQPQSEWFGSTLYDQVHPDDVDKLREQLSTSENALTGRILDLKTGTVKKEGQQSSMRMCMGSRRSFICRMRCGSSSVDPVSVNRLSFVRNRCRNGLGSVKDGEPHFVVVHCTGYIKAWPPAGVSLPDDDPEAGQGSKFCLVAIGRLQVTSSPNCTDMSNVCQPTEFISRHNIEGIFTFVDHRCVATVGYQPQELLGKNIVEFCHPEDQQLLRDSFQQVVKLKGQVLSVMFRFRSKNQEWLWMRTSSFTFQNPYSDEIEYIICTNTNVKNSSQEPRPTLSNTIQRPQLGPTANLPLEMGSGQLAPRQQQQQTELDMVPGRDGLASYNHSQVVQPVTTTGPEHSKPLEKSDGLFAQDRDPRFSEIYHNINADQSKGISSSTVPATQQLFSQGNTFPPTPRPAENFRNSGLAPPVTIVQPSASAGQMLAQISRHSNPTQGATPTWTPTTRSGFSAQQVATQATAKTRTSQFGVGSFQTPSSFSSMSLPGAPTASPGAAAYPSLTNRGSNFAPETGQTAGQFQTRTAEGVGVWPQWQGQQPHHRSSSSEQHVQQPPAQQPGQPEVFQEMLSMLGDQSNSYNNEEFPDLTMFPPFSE

Row | Compound | EC50 (AhR [2]) [nM] | IC50 (GSK-3α/β; [4]) [µM] | IC50 (GSK-3α/β; [5]) [µM] | IC50 (CDK1/cyclin B; [6]) [nM] | IC50 (CDK5/p25; [7]) [µM] | also measured
1 | O=C1Nc2ccccc2/C1=C1/Nc2ccccc2C1=O [5h, indirubin] | 59 | – | – | – | – | EC50 (AhR [1]): 6 nM
2 | CC(=O)ON=C1C(=C2C(=O)Nc3cc(Cl)c(Cl)cc32)Nc2ccccc21 [8e, 5,6Dichloroindirubin-3′-acetoxime] | – | 0.004 | 0.004 | 30000 | 0.1 | –
3 | C=Cc1ccc2c(c1)NC(=O)C2=C1Nc2ccccc2C1=NO [7i, 6-Vinylindirubin-3′-oxime] | – | 0.06 | – | – | 0.42 | –
4 | O=C1Nc2cc(F)ccc2/C1=C1/Nc2ccccc2C1=O [5b, 6-Fluoroindirubin] | – | – | – | – | 1 | –
5 | O=C1Nc2cc(Br)ccc2/C1=C1/Nc2cc(Br)ccc2C1=O [12b, 6,6′-Dibromoindirubin] | > 10000 | 4.5 | 4.5 | > 100000 | > 100 | IC50 (GSK-3α/β; [8]): 4.5 µM; IC50 (GSK-3α/β; Table 4, read-out: IC50 GSK-3): 4.5 µM; IC50 (GSK-3α/β; read-out: IC50 with GSK-3): 4.5 µM; IC50 (CDK1/cyclin B; [9]): ≥ 100000 nM; IC50 (CDK1/cyclin B; [10]): > 100000 nM; IC50 (CDK5/p25; [11]): > 100 µM; IC50 (CDK5/p25; read-out: IC50 with CDK5): > 100 µM
6 | O=C1Nc2ccc(Br)cc2/C1=C1/Nc2ccc(Br)cc2C1=O [compound 21, 5,5′-dibromo-indirubin, reference compound] | 47 | – | 0.25 | – | – | EC50 (AhR [1]): > 200 nM; IC50 (GSK-3α/β; Table 4, read-out: IC50 GSK-3): 0.25 µM; IC50 (CDK1/cyclin B; [10]): 600000 nM
7 | O=C1Nc2cccc(Cl)c2/C1=C1/Nc2ccccc2C1=O [compound 6, 4-Chloroindirubin] | 310 | > 100 | – | 10000 | 10 | IC50 (GSK-3α/β; Table 4, read-out: IC50 GSK-3): > 100 µM; EC50 (AhR [3]): > 100 nM; IC50 (CDK1/cyclin B; [10]): 10000 nM
8 | O=C1Nc2ccc(Br)cc2/C1=C1/Nc2ccccc2C1=O [compound 16, 5-bromo-indirubin, reference compound] | 7 | – | 0.055 | – | – | EC50 (AhR [1]): 35 nM; IC50 (GSK-3α/β; Table 4, read-out: IC50 GSK-3): 0.055 µM; IC50 (CDK1/cyclin B; [10]): 230 nM
9 | CC(=O)ON=C1C(=C2C(=O)Nc3cc(Br)c([N+](=O)[O-])cc32)Nc2ccccc21 [8g, 6-Bromo-5-nitroindirubin-3′-acetoxime] | – | 0.006 | 0.006 | 11000 | 31 | –
10 | 6-Chloroindirubin [5d] | 7 | – | – | > 100000 | > 100 | EC50 (AhR [3]): 30 nM; IC50 (CDK1/cyclin B; [10]): > 100000 nM
11 | Nc1ccc2c(c1)/C(=C1/Nc3ccccc3C1=NO)C(=O)N2 [compound 24, 5-Amino-3′-oxime indirubin] | – | – | – | – | – | IC50 (GSK-3α/β; [12]): 0.75 µM; IC50 (CDK5/p25; [13]): 0.47 µM
12 | Nc1cc2c(cc1Br)NC(=O)/C2=C1\Nc2ccccc2C1=NO [compound 28, 6-Bromo-5-amino-3′-oxime indirubin] | – | – | – | – | – | IC50 (GSK-3α/β; [12]): 0.056 µM; IC50 (CDK5/p25; [13]): 0.57 µM
13 | Cc1cc2c(cc1Br)NC(=O)C2=C1Nc2ccccc2C1=NO [7f, 6-Bromo-5-methylindirubin-3′-oxime] | – | – | – | – | 0.13 | –
14 | Cc1ccc2c(c1)/C(=C1/Nc3ccccc3C1=O)C(=O)N2 [compound 15, 5-methyl-indirubin, reference compound] | 25 | – | 0.062 | – | – | EC50 (AhR [1]): 40 nM; IC50 (GSK-3α/β; Table 4, read-out: IC50 GSK-3): 0.062 µM; IC50 (CDK1/cyclin B; read-out: IC50 CDK1/cycin B): 280 nM
15 | O=C1Nc2cc(Br)c([N+](=O)[O-])cc2C1=C1Nc2ccccc2C1=NO [7g, 6-Bromo-5-nitroindirubin-3′-oxime] | – | – | – | – | 0.15 | –
16 | O=C1Nc2ccc(F)cc2C1=C1Nc2ccccc2C1=O [5-Fluoroindirubin, reference compound] | – | – | 0.078 | – | – | –
17 | O=C1Nc2cc(Br)c([N+](=O)[O-])cc2C1=C1Nc2ccccc2C1=O [5g, 6-Bromo-5-nitroindirubin] | – | 0.1 | 0.1 | > 100000 | > 100 | –
18 | Nc1ccc2c(c1)C(=C1Nc3ccccc3C1=O)C(=O)N2 [compound 23, 5-Aminoindirubin] | – | – | – | – | – | IC50 (GSK-3α/β; [12]): 1.5 µM; IC50 (CDK5/p25): 2.6 µM
19 | CN1C(=O)/C(=C2\Nc3ccccc3C2=O)c2ccccc21 [12d, 1-Methylindirubin] | 830 | > 100 | – | > 100000 | > 100 | IC50 (GSK-3α/β; Table 4, read-out: IC50 GSK-3): > 100 µM; EC50 (AhR [3]): 6 nM; IC50 (CDK1/cyclin B; [10]): > 100000 nM

Row | Compound | EC50 (AhR [2]) [nM] | IC50 (GSK-3α/β; [4]) [µM] | IC50 (GSK-3α/β; [5]) [µM] | IC50 (CDK1/cyclin B; [6]) [nM] | IC50 (CDK5/p25; [7]) [µM] | also measured
20 | O=C1Nc2cc(Cl)c(Cl)cc2/C1=C1/Nc2ccccc2C1=O [5e, 5,6-Dichloroindirubin] | – | 0.03 | 0.03 | 45000 | 60 | –
21 | CC(=O)O/N=C1/C(=C2/C(=O)Nc3cc(Cl)ccc32)Nc2ccccc21 [8d, 6-Chloroindirubin-3′-acetoxime] | – | 0.017 | 0.017 | 30000 | 0.2 | –
22 | O=C1Nc2cc(F)ccc2C1=C1Nc2ccccc2C1=NO [7b, 6-Fluoroindirubin-3′-oxime] | – | 0.13 | 0.13 | 320 | 0.15 | –
23 | O=C1Nc2cc(Br)ccc2C1=C1Nc2ccccc2C1=O [5a, 6-Bromoindirubin] | 8 | – | – | – | 53 | EC50 (AhR [3]): 20 nM; IC50 (CDK5/p25; [11]): 53 µM
24 | O=C1Nc2cc(Cl)ccc2C1=C1Nc2ccccc2C1=NO [7d, 6-Chloroindirubin-3′-oxime] | 200 | 0.02 | 0.02 | 650 | 0.1 | IC50 (GSK-3α/β; Table 4, read-out: IC50 GSK-3): 0.02 µM; EC50 (AhR [3]): 4 nM; IC50 (CDK1/cyclin B; [10]): 650 nM
25 | C=Cc1ccc2c(c1)NC(=O)/C2=C1\Nc2ccccc2C1=O [5i, 6-Vinylindirubin] | – | 0.24 | – | 4200 | 2.4 | –
26 | CC(=O)O/N=C1/C(=C2/C(=O)Nc3cc(I)ccc32)Nc2ccccc21 [8c, 6-Iodoindirubin-3′-acetoxime] | – | 0.013 | – | 2200 | 1.3 | –
27 | O=C1Nc2ccc([N+](=O)[O-])cc2C1=C1Nc2ccccc2C1=O [5-Nitroindirubin, reference compound] | – | – | 0.042 | – | – | –
28 | CC(=O)ON=C1C(=C2C(=O)Nc3cc(Br)c(C)cc32)Nc2ccccc21 [8f, 6-Bromo-5-methylindirubin-3′-acetoxime] | – | 0.007 | 0.007 | 31000 | 30 | –
29 | CON=C1C(=C2C(=O)Nc3ccccc32)Nc2ccccc21 [9b, Indirubin-3′-methoxime] | – | – | – | – | 0.4 | –
30 | O=C1Nc2ccc(I)cc2/C1=C1/Nc2ccccc2C1=O [compound 18, 5-iodo-indirubin, reference compound] | – | – | – | – | – | EC50 (AhR [1]): 30 nM; IC50 (CDK1/cyclin B; [10]): 220 nM
31 | C=Cc1ccc2c(c1)NC(=O)C2=C1Nc2ccccc2C1=NOC(C)=O [8i, 6-vinylindirubin-3′-acetoxime] | – | 0.065 | – | 1600 | 0.4 | –
32 | Cc1cc2c(cc1Br)NC(=O)C2=C1Nc2ccccc2C1=O [5f, 6-Bromo-5-methylindirubin] | – | 0.025 | 0.025 | 30000 | 60 | –
33 | Nc1cc2c(cc1Br)NC(=O)C2=C1Nc2ccccc2C1=O [compound 27, 6-Bromo-5-aminoindirubin] | – | – | – | – | – | IC50 (GSK-3α/β; [12]): 0.054 µM; IC50 (CDK5/p25; [13]): 0.6 µM
34 | O=C1Nc2cc(I)ccc2/C1=C1/Nc2ccccc2C1=O [5c, 6-Iodoindirubin] | 17 | 0.055 | 0.055 | 1600 | 5.3 | IC50 (GSK-3α/β; Table 4, read-out: IC50 GSK-3): 0.055 µM; EC50 (AhR [3]): 40 nM; IC50 (CDK1/cyclin B; [10]): 1600 nM
35 | O=C1Nc2cc(I)ccc2C1=C1Nc2ccccc2C1=NO [7c, 6-Iodoindirubin-3′-oxime] | 440 | – | – | – | 0.3 | EC50 (AhR [3]): > 100 nM
36 | O=C1Nc2ccccc2/C1=C1/Nc2cc(Br)ccc2C1=O [12a, 6′-Bromoindirubin] | 1200 | 22 | 22 | > 100000 | > 100 | IC50 (GSK-3α/β; [8]): 22 µM; IC50 (GSK-3α/β; Table 4, read-out: IC50 GSK-3): 22 µM; EC50 (AhR [3]): 100 nM; IC50 (CDK1/cyclin B; [9]): > 100000 nM; IC50 (CDK1/cyclin B; [10]): > 100000 nM; IC50 (CDK5/p25; [11]): > 100 µM
37 | CN1C(=O)C(=C2Nc3ccccc3C2=O)c2ccc(Br)cc21 [12c, 6-Bromo-1-methylindirubin] | 50 | > 100 | – | > 100000 | > 100 | IC50 (GSK-3α/β; [8]): > 100 µM; IC50 (GSK-3α/β; Table 4, read-out: IC50 GSK-3): > 100 µM; EC50 (AhR [3]): ≥ 100 nM; IC50 (CDK1/cyclin B; [10]): > 100000 nM; IC50 (CDK5/p25; [11]): > 100 µM
